Calls of active or inactive are those of the source. The rule behind the calls is not given here.

Data set [1] is described as follows: Membrane permeabilizing activity across 1-palmitoyl-2-oleoyl-sn-glycero-3-phosphocholine liposome assessed as K+ ion influx at compound to lipid ratio of 0.0001 to 0.001 after 18 hrs by BCECF staining-based fluorometric method. It is filed as physicochemical. Conditions: artificial membrane.
A short description of data set [2]: Binding affinity to bilayer membrane of 1-palmitoyl-2-oleoyl-sn-glycero-3-phosphatidylglycerol and 30% 1-palmitoyl-2-oleoyl-sn-glycero-3-phosphocholine at 6.3 uM after 18 hrs by UV spectroscopy.
A short description of data set [3]: Membrane permeabilizing activity across large unilamellar vesicle containing 1-palmitoyl-2-oleoyl-sn-glycero-3-phosphatidylglycerol and 10% 1-palmitoyl-2-oleoyl-sn-glycero-3-phosphocholine assessed as K+ ion influx at compound to lipid ratio of 0.001 to 0.01 after 18 hrs by BCECF staining-based fluorometric method. The class given is physicochemical.
Data set [4] is described as follows: Membrane permeabilizing activity across large unilamellar vesicle containing 1-palmitoyl-2-oleoyl-sn-glycero-3-phosphatidylglycerol and 30% 1-palmitoyl-2-oleoyl-sn-glycero-3-phosphocholine assessed as K+ ion influx at compound to lipid ratio of 0.001 to 0.01 after 18 hrs by BCECF staining-based fluorometric method. The class given is physicochemical.
Data set [5] is described as follows: Membrane permeabilizing activity across cholesterol-containing 1-palmitoyl-2-oleoyl-sn-glycero-3-phosphocholine liposome assessed as K+ ion influx at compound to lipid ratio of 0.0001 to 0.001 after 18 hrs by BCECF staining-based fluorometric method. The class given is physicochemical. Conditions: artificial membrane.
For data set [6], the system named is Lipid bilayer. Nature of the data set: Binding affinity to 1-palmitoyl-2-oleoyl-sn-glycero-3-phosphatidylglycerol bilayer membrane at 6.3 uM after 18 hrs by UV spectroscopy.
Data set [7] is described as follows: Membrane permeabilizing activity across 1-palmitoyl-2-oleoyl-sn-glycero-3-phosphatidylglycerol liposome assessed as K+ ion influx at compound to lipid ratio of 0.001 to 0.01 after 18 hrs by BCECF staining-based fluorometric method. It is filed as physicochemical. Conditions: artificial membrane.
The nature of data set [8]: Membrane permeabilizing activity across ergosterol-containing 1-palmitoyl-2-oleoyl-sn-glycero-3-phosphocholine liposome assessed as K+ ion influx at compound to lipid ratio of 0.0001 to 0.001 after 18 hrs by BCECF staining-based fluorometric method. The conditions noted are these: artificial membrane. It is filed as physicochemical.
Data set [9] is described as follows: Membrane permeabilizing activity across 1-palmitoyl-2-oleoyl-sn-glycero-3-phosphocholine liposome assessed as K+ ion influx at compound to lipid ratio of 0.001 to 0.01 after 18 hrs by BCECF staining-based fluorometric method. It is filed as physicochemical. The conditions noted are these: artificial membrane.
Data set [10] concerns Lipid bilayer. Briefly: Binding affinity to 1-palmitoyl-2-oleoyl-sn-glycero-3-phosphocholine bilayer membrane at 6.3 uM after 18 hrs by UV spectroscopy.

`C[C@@H]1[C@H](O)[C@@H](C)/C=C/C=C/C=C/C=C/C=C/C=C/C=C/[C@H](O[C@@H]2O[C@H](C)[C@@H](O)[C@H](N)[C@@H]2O)C[C@@H]2O[C@](O)(C[C@@H](O)C[C@@H](O)[C@H](O)CC[C@@H](O)C[C@@H](O)CC(=O)O[C@H]1C)C[C@H](O)[C@H]2C(=O)O` [AMPHOTERICIN B]: the Activity result in [1] is “Not Active”; in data set [3], “Active”; in data set [4], “Active”; in [5] it was “Not Active”; in data set [7], “Not Active”; in data set [8] it was “Active”. In data set [9], the outcome was Active. Besides, the outcome in data set [2], in [6] and in data set [10] was Active.

The values above are taken from ChEMBL document CHEMBL1152531, “Amphotericin B-induced ion flux is markedly attenuated in phosphatidylglycerol membrane as evidenced by a newly devised fluorometric method” (Bioorg Med Chem, 2009).
